Measurements published in ChEMBL document CHEMBL5335866, “Structure-Based Optimization of Selective and Brain Penetrant CK1δ Inhibitors for the Treatment of Circadian Disruptions” (ACS Med Chem Lett, 2024).
The source made the active and inactive calls. No cut-off for these calls is given here.

Assays:
[1] = Intrinsic clearance in mouse liver microsomes at 1 uM preincubated for 5 mins followed by NADPH addition measured for 60 mins by LC-MS/MS analysis; type: ADME, Microsome; details: time 65 min, read-out: CLH
Cytochrome P450 1A2 = Cytochrome P450 1A2 (Homo sapiens, UniProt P05177); assay: Inhibition of CYP1A2 in human liver microsomes incubated for 10 mins in presence of NADPH by LC-MS/MS analysis; type: ADME, Microsome
Chain of Cytochrome P450 1A2 (P05177 whole entry): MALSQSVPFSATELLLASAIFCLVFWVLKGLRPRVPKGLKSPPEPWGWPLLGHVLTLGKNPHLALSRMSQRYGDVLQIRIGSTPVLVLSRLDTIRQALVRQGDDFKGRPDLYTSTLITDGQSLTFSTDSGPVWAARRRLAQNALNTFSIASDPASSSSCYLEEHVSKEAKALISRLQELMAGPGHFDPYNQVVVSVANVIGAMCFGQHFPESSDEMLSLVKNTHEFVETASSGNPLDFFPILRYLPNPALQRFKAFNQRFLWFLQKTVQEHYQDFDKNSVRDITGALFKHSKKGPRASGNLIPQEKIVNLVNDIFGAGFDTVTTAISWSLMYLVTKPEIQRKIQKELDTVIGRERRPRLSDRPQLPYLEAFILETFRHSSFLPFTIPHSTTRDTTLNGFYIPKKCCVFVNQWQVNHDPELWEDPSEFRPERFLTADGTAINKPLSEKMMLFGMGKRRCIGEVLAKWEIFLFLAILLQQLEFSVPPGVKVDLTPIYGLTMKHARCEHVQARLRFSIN

[2] = Oral bioavailability in C57BL/6 mouse at 5 mg/kg measured for 6 hrs by LC/MS-MS analysis; type: ADME, organism-based; details: in vivo
Cytochrome P450 2C9 = Cytochrome P450 2C9 (Homo sapiens, UniProt P11712); assay: Inhibition of CYP2C9 in human liver microsomes incubated for 10 mins in presence of NADPH by LC-MS/MS analysis; type: ADME, Microsome
Chain of Cytochrome P450 2C9 (P11712 whole entry): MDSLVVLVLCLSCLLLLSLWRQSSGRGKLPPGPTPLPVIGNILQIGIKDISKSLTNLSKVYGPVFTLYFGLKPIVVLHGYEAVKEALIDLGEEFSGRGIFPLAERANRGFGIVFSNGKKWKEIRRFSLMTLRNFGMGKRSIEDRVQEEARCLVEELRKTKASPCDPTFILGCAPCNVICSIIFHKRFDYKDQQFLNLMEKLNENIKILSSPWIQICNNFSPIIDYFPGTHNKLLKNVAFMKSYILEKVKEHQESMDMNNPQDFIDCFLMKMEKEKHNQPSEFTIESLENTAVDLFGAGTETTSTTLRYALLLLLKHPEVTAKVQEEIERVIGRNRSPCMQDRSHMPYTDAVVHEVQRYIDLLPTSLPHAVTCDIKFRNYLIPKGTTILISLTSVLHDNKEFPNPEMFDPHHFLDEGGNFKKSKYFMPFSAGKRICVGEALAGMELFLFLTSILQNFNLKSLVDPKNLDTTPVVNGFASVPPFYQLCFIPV

[3] = Cmax in plasma of C57BL/6 mouse at 30 mg/kg, sc measured for 6 hrs by LC/MS-MS analysis; type: ADME, organism-based; parameters: time 6 hrs, dose 30 mg/kg, route sc
[4] = biological target: Casein kinase I isoform alpha (Homo sapiens, UniProt P48729); assay: Inhibition of CK1 alpha (unknown origin)
Chain of Casein kinase I isoform alpha (P48729 whole entry, canonical isoform): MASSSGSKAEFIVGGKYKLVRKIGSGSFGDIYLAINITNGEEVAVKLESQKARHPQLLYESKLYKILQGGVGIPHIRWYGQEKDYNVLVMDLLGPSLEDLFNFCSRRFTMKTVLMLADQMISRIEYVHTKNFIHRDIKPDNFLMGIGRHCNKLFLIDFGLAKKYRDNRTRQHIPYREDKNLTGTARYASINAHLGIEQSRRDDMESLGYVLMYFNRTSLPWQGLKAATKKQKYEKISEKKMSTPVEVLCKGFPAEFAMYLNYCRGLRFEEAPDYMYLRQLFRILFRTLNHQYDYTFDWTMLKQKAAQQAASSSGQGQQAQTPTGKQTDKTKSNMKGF

[5] = biological target: Casein kinase I isoform epsilon (Homo sapiens, UniProt P49674); assay: Inhibition of CK1 epsilon (unknown origin)
Chain of Casein kinase I isoform epsilon (P49674 whole entry, canonical isoform): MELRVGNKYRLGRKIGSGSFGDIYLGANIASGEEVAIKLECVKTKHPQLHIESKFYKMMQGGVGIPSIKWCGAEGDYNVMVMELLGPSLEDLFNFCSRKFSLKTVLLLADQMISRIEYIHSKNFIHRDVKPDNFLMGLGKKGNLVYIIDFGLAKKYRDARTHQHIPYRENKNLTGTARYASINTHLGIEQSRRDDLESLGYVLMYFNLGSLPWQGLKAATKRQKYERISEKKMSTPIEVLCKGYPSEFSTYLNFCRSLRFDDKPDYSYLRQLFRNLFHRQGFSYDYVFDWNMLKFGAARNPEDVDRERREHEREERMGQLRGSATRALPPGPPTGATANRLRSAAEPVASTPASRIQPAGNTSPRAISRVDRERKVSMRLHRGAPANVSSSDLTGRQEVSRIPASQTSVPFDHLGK

[6] = Unbound drug concentration in brain of C57BL/6 mouse at 30 mg/kg, sc measured for 6 hrs by LC/MS-MS analysis; type: ADME, organism-based; details: in vivo
[7] = Effect on circadian rhythms in C57BL/6 mouse assessed as phase delay in time at 30 mg/kg, sc qd for 10 days by wheel running assay; type: functional; details: time 10 day
[8] = Unbound Cmax in Sprague-Dawley rat at 5 mg/kg, po measured for 24 hrs by LC-MS/MS analysis; type: ADME, organism-based; details: in vivo
[9] = AUC (infinity) in Sprague-Dawley rat at 5 mg/kg, po measured for 24 hrs by LC-MS/MS analysis; type: ADME, organism-based; parameters: time 24 hrs, dose 5 mg/kg, route po; details: in vivo
[10] = Cmax in brain of C57BL/6 mouse at 30 mg/kg, sc measured after 30 mins by LC/MS-MS analysis; type: ADME, organism-based; parameters: time 30 min, dose 30 mg/kg, route sc
[11] = Cmax in Sprague-Dawley rat at 5 mg/kg, po measured for 24 hrs by LC-MS/MS analysis; type: ADME, organism-based; parameters: dose 5 mg/kg, time 24 hrs, route po; details: in vivo
[12] = Oral bioavailability in Sprague-Dawley rat at 5 mg/kg measured for 24 hrs by LC-MS/MS analysis; type: ADME, organism-based; details: in vivo
[13] = Clearance in Sprague-Dawley rat at 1 mg/kg, iv measured for 24 hrs by LC-MS/MS analysis; type: ADME, organism-based; details: in vivo
[14] = Unbound drug concentration in plasma of C57BL/6 mouse at 30 mg/kg, sc measured for 6 hrs by LC/MS-MS analysis; type: ADME, organism-based; details: in vivo
[15] = Intrinsic clearance in cynomolgus monkey liver microsomes at 1 uM preincubated for 5 mins followed by NADPH addition measured for 60 mins by LC-MS/MS analysis; type: ADME, Macaca fascicularis, Microsome; details: time 65 min, read-out: CLH
[16] = Cmax in brain of C57BL/6 mouse at 30 mg/kg, sc measured for 6 hrs by LC/MS-MS analysis; type: ADME, organism-based; parameters: time 6 hrs, dose 30 mg/kg, route sc
Brain = assay: Ex vivo receptor occupancy at CK1 delta in brain of C57BL/6 mouse at 30 mg/kg, sc measured for 6 hrs by autoradiography relative to control; type: functional
Cytochrome P450 3A4 = Cytochrome P450 3A4 (Homo sapiens, UniProt P08684); assay: Inhibition of CYP3A4 in human liver microsomes using midazolam as substrate incubated for 5 mins in presence of NADPH by LC-MS/MS analysis; type: ADME, Microsome
Chain of Cytochrome P450 3A4 (P08684 whole entry): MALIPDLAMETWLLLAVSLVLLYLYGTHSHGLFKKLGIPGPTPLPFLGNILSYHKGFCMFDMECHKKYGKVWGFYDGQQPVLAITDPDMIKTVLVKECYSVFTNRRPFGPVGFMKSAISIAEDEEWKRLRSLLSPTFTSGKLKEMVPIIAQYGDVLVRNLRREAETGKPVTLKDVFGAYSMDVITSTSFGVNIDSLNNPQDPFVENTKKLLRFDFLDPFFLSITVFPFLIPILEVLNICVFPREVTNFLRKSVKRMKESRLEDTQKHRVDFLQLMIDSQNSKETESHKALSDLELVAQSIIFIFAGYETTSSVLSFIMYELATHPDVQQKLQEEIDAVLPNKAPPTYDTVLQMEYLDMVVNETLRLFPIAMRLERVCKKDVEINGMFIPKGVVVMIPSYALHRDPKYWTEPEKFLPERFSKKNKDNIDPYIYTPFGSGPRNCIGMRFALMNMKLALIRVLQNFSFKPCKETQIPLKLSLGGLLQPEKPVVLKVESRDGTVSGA

[17] = Intrinsic clearance in rat liver microsomes at 1 uM preincubated for 5 mins followed by NADPH addition measured for 60 mins by LC-MS/MS analysis; type: ADME, Microsome; details: time 65 min, read-out: CLH
[18] = Volume of distribution at steady state in Sprague-Dawley rat at 1 mg/kg, iv measured for 24 hrs by LC-MS/MS analysis; type: ADME, organism-based; details: in vivo, read-out: Vdss
[19] = Cmax in plasma of C57BL/6 mouse at 30 mg/kg, sc measured after 30 mins by LC/MS-MS analysis; type: ADME, organism-based; parameters: time 30 min, dose 30 mg/kg, route sc
[20] = Ratio of unbound fraction in brain to plasma of C57BL/6 mouse at 30 mg/kg, sc measured for 6 hrs by LC/MS-MS analysis; type: ADME, organism-based; details: read-out: K(p,uu,brain)
Mus musculus [21] = assay: Effect on circadian rhythms in C57BL/6 mouse assessed as phase shift at 10 to 30 mg/kg, sc qd measured after 1 to 10 days by wheel running assay; type: functional, organism-based; details: dose 10-30 mg/kg, time 1-10 day, tested as the 2H-labelled form
Cytochrome P450 2D6 = Cytochrome P450 2D6 (Homo sapiens, UniProt P10635); assay: Inhibition of CYP2D6 in human liver microsomes incubated for 10 mins in presence of NADPH by LC-MS/MS analysis; type: ADME, Microsome
Chain of Cytochrome P450 2D6 (P10635 whole entry): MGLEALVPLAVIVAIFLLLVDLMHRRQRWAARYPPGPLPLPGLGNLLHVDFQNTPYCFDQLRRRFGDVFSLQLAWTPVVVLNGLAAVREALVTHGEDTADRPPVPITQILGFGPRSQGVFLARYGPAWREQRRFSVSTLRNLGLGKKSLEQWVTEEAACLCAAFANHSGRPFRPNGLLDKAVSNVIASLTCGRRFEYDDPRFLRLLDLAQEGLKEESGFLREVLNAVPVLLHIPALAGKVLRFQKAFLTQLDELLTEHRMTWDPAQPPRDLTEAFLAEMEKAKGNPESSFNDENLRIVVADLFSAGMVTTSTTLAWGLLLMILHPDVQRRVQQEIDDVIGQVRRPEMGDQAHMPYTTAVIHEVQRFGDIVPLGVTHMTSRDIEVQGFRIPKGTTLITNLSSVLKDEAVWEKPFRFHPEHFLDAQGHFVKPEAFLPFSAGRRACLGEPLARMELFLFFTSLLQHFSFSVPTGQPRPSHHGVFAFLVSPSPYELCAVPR

[22] = Half life in Sprague-Dawley rat at 5 mg/kg, po measured for 24 hrs by LC-MS/MS analysis; type: ADME, organism-based; details: in vivo
[23] = Intrinsic clearance in dog liver microsomes at 1 uM preincubated for 5 mins followed by NADPH addition measured for 60 mins by LC-MS/MS analysis; type: ADME, Canis lupus familiaris, Microsome; details: time 65 min, read-out: CLH
[24] = Oral bioavailability in C57BL/6 mouse at 30 mg/kg measured for 6 hrs by LC/MS-MS analysis; type: ADME, organism-based; details: in vivo
Mus musculus [25] = assay: Effect on circadian rhythms in C57BL/6 mouse assessed as phase shift at 30 mg/kg, sc qd measured after 4 to 10 days by wheel running assay; type: functional, organism-based; details: time 4-10 day
[26] = Cmax in C57BL/6 mouse at 5 mg/kg, po measured for 6 hrs by LC/MS-MS analysis; type: ADME, organism-based; parameters: dose 5 mg/kg, time 6 hrs, route po; details: in vivo
[27] = biological target: TRAF2 and NCK-interacting protein kinase (Homo sapiens, UniProt Q9UKE5); assay: Inhibition of TNIK (unknown origin)
Cytochrome P450 2C19 = Cytochrome P450 2C19 (Homo sapiens, UniProt P33261); assay: Inhibition of CYP2C19 in human liver microsomes incubated for 10 mins in presence of NADPH by LC-MS/MS analysis; type: ADME, Microsome
Chain of Cytochrome P450 2C19 (P33261 whole entry): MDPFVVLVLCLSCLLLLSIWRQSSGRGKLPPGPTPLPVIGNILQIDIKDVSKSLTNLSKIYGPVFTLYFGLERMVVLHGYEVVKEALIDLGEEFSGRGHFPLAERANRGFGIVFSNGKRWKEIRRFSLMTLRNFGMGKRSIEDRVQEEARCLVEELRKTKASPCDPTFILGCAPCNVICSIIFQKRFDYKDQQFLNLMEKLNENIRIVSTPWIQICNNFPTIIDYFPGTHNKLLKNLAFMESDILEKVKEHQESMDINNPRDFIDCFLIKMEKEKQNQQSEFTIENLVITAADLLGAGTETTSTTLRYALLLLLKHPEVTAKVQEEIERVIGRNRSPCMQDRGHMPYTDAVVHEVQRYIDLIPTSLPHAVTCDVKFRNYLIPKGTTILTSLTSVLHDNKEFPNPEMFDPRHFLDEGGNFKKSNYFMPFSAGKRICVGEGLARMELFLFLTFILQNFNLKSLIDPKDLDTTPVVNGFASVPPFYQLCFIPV

[28] = Apparent permeability across apical to basal side in MDCK cells expressing MDR1 at 5 uM incubated for 60 mins by LC/MS/MS analysis; type: ADME, cell-based, Canis lupus familiaris, MDCK1; details: dog
Cytochrome P450 2C8 = Cytochrome P450 2C8 (Homo sapiens, UniProt P10632); assay: Inhibition of CYP2C8 in human liver microsomes incubated for 10 mins in presence of NADPH by LC-MS/MS analysis; type: ADME, Microsome
Chain of Cytochrome P450 2C8 (P10632 whole entry): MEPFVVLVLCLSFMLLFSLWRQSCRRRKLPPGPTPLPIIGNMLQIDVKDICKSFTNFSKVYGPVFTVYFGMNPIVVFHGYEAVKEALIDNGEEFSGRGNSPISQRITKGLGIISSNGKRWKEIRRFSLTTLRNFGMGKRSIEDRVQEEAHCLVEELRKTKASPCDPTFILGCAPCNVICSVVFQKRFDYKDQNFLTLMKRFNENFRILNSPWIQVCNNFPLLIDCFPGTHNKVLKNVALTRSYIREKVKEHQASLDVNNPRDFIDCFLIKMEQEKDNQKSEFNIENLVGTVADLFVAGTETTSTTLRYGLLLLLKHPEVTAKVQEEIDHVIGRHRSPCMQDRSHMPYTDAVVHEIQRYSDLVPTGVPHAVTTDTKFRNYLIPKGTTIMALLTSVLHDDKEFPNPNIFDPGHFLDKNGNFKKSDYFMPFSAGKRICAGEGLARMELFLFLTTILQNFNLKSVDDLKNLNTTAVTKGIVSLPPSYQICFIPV

[29] = Intrinsic clearance in human liver microsomes at 1 uM preincubated for 5 mins followed by NADPH addition measured for 60 mins by LC-MS/MS analysis; type: ADME, Microsome; details: time 65 min, read-out: CLH
[30] = Cmax in plasma of C57BL/6 mouse at 30 mg/kg, sc measured after 15 mins by LC/MS-MS analysis; type: ADME, organism-based; parameters: dose 30 mg/kg, time 15 min, route sc
[31] = Cmax in brain of C57BL/6 mouse at 30 mg/kg, sc measured after 15 mins by LC/MS-MS analysis; type: ADME, organism-based; parameters: time 15 min, dose 30 mg/kg, route sc

| microsomal CLint at 1 µM [1] [µL/min/mg] | IC50 (Cytochrome P450 1A2) [µM] | IC50 (Cytochrome P450 2C9) [µM] | Cmax [3] [ng/mL] | IC50 [4] [µM] | IC50 [5] [µM] | Drug uptake(free) [6] [nM] | fCmax [8] [µM] | AUC(0-inf) [9] [ng·h/mL] | Cmax [11] [nM] | bioavailability [12] [%] | clearance [13] [mL/min/kg] | Cp(f) [14] [nM] | microsomal CLint at 1 µM [15] [µL/min/mg] | Cmax [16] [ng/g] | IC50 (Cytochrome P450 3A4) [µM] | microsomal CLint at 1 µM [17] [µL/min/mg] | Vd [18] [L/kg] | SMILES | Time [7] [h] | Occ (Brain) [%] | other results |
| --- | --- | --- | --- | --- | --- | --- | --- | --- | --- | --- | --- | --- | --- | --- | --- | --- | --- | --- | --- | --- | --- |
| 22.7 | > 20 | > 20 | 4110 | 0.79 | 0.093 | 668 | 0.15 | 150 | 400 | 19 | 104 | 2899 | 12.3 | 847 | > 20 | 17.2 | 1.2 | CC1(C)Cn2nc(-c3ccc(F)cn3)c(-c3ccnc4[nH]ncc34)c2CO1 | 0.83 | 56 | bioavailability [2]: 4%; Cmax [10]: 2300 nM; Cmax [19]: 11300 nM; Kp uu at 6 h [20]: 0.23; Activity (Mus musculus [21]): Active; IC50 (Cytochrome P450 2D6): > 20 µM; half-life [22]: 60 min; microsomal CLint at 1 µM [23]: < 7.7 µL/min/mg; bioavailability [24]: 53%; Activity (Mus musculus [25]): Active; Cmax [26]: 700 nM; IC50 [27]: 3.2 µM; IC50 (Cytochrome P450 2C19): > 20 µM; Papp A→B at 1 h, 5 µM [28]: 7.4 ×10⁻⁶ cm/s; IC50 (Cytochrome P450 2C8): > 20 µM |
| < 7.7 | > 20 | > 20 | 8850 | 0.41 | 0.11 | 789 | 1.1 | 1940 | 3000 | 85 | 44 | 6117 | < 7.7 | 1350 | > 20 | 8.5 | 1 | [2H]C([2H])([2H])C1(C([2H])([2H])[2H])Cn2nc(-c3ccc(F)cn3)c(-c3ccnc4[nH]ncc34)c2CO1 | 1.25 | 60 | microsomal CLint at 1 µM [29]: < 7.7 µL/min/mg; Cmax [30]: 23900 nM; Kp uu at 6 h [20]: 0.13; IC50 (Cytochrome P450 2D6): > 20 µM; half-life [22]: 48 min; microsomal CLint at 1 µM [23]: < 7.7 µL/min/mg; Cmax [31]: 3700 nM; IC50 (Cytochrome P450 2C19): > 20 µM; Papp A→B at 1 h, 5 µM [28]: 4.8 ×10⁻⁶ cm/s; IC50 (Cytochrome P450 2C8): > 20 µM |
